Results on one cell line are retold here after the supplement of paper PMC10307832.

What all share (test): relative viability (nuclei count vs DMSO), 5 days (fraction); higher = more cells survive
Compound in the assay “TPCA-1 + Tozasertib”: C1=CC(=CC=C1C2=CC(=C(S2)NC(=O)N)C(=O)N)F [TPCA-1] + Cc1cc(Nc2cc(N3CCN(C)CC3)nc(Sc3ccc(NC(=O)C4CC4)cc3)n2)n[nH]1 [Tozasertib] (partner 0.1 µM)
An outline of the steps: (§1)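 One day after seeding in 1536-well plates, lung cancer cell lines were dosed by pin tool. Dosing was either single-drug or a fixed anchor-drug dose plus five library-drug doses (not always all listed) in √10 steps. After 5 days, nuclei were stained in one fix-and-stain step and counted on 4× images, and relative viability is the nuclei count of treated wells over that of vehicle wells, given as the median of duplicate plates.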

Compound in assay [1]: C1/C(=C\C2=CC=CS2)/C(=O)/C(=C/C3=CC=CS3)/C1 + Cc1nc(Nc2ncc(C(=O)Nc3c(C)cccc3Cl)s2)cc(N2CCN(CCO)CC2)n1 [Dasatinib] (partner 0.075 µM)
An outline of the steps:
as §1

Compound in the assay “TPCA-1 + Vorinostat”: C1=CC(=CC=C1C2=CC(=C(S2)NC(=O)N)C(=O)N)F [TPCA-1] + O=C(CCCCCCC(=O)Nc1ccccc1)NO [Vorinostat] (partner 1 µM)
An outline of the steps:
as §1

Compound in the assay “TPCA-1 + Olaparib”: C1=CC(=CC=C1C2=CC(=C(S2)NC(=O)N)C(=O)N)F [TPCA-1] + O=C(c1cc(Cc2n[nH]c(=O)c3ccccc23)ccc1F)N1CCN(C(=O)C2CC2)CC1 [Olaparib] (partner 8 µM)
An outline of the steps: as §1

Take UMC-11: the relative viability stood at 0.208 in the assay with TPCA-1 + Tozasertib (first compound 0.04 µM); 0.207 in the assay with TPCA-1 + Tozasertib (first compound 0.1265 µM); 0.216 with TPCA-1 + Tozasertib (first compound 0.4 µM); 0.178 in the assay with TPCA-1 + Tozasertib (first compound 1.265 µM); 0.187 with TPCA-1 + Tozasertib (first compound 4 µM); 0.555 in assay [1] (first compound 0.2 µM). For the same cell line, the relative viability in assay [1] (first compound 0.6325 µM) came to 0.507; in assay [1] (first compound 20 µM), 0.472; in the assay with TPCA-1 + Vorinostat (first compound 0.04 µM), 0.447; with TPCA-1 + Vorinostat (first compound 0.1265 µM), 0.358; in the assay with TPCA-1 + Vorinostat (first compound 0.4 µM) it was 0.368; with TPCA-1 + Vorinostat (first compound 1.265 µM) it was 0.378. Also, the relative viability with TPCA-1 + Vorinostat (first compound 4 µM) was determined as 0.214; with TPCA-1 + Olaparib (first compound 0.04 µM), 0.365; with TPCA-1 + Olaparib (first compound 0.1265 µM), 0.455; with TPCA-1 + Olaparib (first compound 0.4 µM) it was 0.405; in the assay with TPCA-1 + Olaparib (first compound 1.265 µM), 0.381; in the assay with TPCA-1 + Olaparib (first compound 4 µM), 0.42.
